Legend:
ERK1/2 = ERK1/2 phosphorylation immunoblot in HEK 293 cells; format: cell-based, human; details: 500 nM CRF; 0, 2, 5, 15 and 30 min
Description: Following transfection, HEK 293 cells were re-seeded into 6-well plates. […] Cells were lysed with lysis buffer (50 mM Tris, pH 8.0, 150 mM NaCl, and 0.1% Triton X-100) containing protease inhibitors (1 mM AEBSF, 10 μg/ml leupeptin, and 5 μg/ml aprotinin) for 20 min on a rocking platform at 4° C. Samples were collected into 1.5 mL Eppendorf tubes and centrifuged at 15,000 g for 15 min at 4° C. to pellet insoluble material. A […] protein assay was performed and 50 μg of protein was incubated overnight at room temperature in 3×SDS Loading Buffer containing 2-mercaptoethanol. Samples were separated by SDS-PAGE, transferred to a nitrocellulose membrane, and immunoblotted for ERK1/2 (rabbit anti-p44/42 mitogen-activated protein kinase (MAPK), 1:1000), phospho-ERK1/2 (rabbit anti-phospho-p44/42 MAPK, 1:1000), SAP97 (mouse anti-SAP97, 1:1000), and HA-CRFR1 expression (mouse anti-HA, 1:1000), followed by a horseradish peroxidase-conjugated secondary anti-rabbit antibody (1:10,000) or anti-mouse antibody (1:10,000) where appropriate. Proteins were detected using chemiluminescence with the enhanced chemiluminescence kit from GE Healthcare.

5-HT2AR = biological target: T1, 5-HT2AR (Homo sapiens, UniProt P28223); assay: 5-HT-stimulated inositol phosphate formation in HEK 293 cells transfected with FLAG-5-HT2AR and HA-CRFR1; format: cell-based
T1 construct: expressed in transfected cells; host or cells: HEK 293
T1 sequence (P28223 whole entry): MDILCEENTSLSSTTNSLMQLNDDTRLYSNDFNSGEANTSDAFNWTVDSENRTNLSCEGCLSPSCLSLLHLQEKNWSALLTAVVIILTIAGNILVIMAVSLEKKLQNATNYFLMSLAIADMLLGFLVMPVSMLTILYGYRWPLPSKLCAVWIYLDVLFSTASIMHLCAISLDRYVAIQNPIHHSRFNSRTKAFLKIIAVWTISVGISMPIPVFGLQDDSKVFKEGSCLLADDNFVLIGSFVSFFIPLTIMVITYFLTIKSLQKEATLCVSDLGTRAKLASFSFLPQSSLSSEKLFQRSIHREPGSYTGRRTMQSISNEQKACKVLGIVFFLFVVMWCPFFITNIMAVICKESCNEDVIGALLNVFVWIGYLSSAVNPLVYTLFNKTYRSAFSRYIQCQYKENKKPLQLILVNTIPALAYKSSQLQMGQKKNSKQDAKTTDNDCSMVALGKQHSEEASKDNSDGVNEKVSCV

HA-CRFR1 = biological target: T2, HA-CRFR1 (Homo sapiens, UniProt P34998); assay: Receptor endocytosis by flow cytometry in HEK 293 cells; format: cell-based; details: 500 nM CRF for 30 min at 37° C.; cells expressing only wild-type CRFR1
T2 construct: expressed in transfected cells; host or cells: HEK 293
T2 sequence (P34998 24-415): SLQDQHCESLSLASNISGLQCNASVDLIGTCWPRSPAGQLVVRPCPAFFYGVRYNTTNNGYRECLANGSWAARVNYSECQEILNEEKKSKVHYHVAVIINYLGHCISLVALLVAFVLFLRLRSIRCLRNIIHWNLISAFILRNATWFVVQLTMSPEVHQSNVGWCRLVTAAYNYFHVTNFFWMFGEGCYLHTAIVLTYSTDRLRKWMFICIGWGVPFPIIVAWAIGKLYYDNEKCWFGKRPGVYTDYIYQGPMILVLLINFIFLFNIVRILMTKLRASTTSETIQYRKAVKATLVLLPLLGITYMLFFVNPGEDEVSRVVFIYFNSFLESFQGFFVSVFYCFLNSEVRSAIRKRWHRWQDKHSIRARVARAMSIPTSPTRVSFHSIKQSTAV
Description: Cells were seeded on 10 cm dishes at 70-80% density 24 h prior to transfection. Transfection was performed using a modified calcium phosphate method, as described previously (Ferguson et al. (2004) Methods Mol. Biol. 237, 121-126). 1 μg of each construct was used for each transfection, with the exception that 3 μg of plasmid cDNA was used for all shRNA constructs. Empty pcDNA3.1 vector was used to equalize the total amount of plasmid cDNA used to transfect cells. 18 h post-transfection, cells were washed with phosphate buffered saline (PBS) and re-suspended with Trypsin 0.25% EDTA. Cells were then reseeded for experimentation. All experiments were conducted approximately 48 h after the initial transfection, with exception of transfections involving SAP97 shRNA, which were conducted 72 h after initial transfection to optimize the knockdown of endogenous SAP97, as confirmed by Western blotting.
Following transfection, HEK 293 cells were re-seeded into 12-well plates. […] Cells were washed with cold HBSS and treated with mouse anti-HA antibody (1:500) for 45 min on ice. […] Samples were run on a FACSCalibur cytometer using BD CellQuest Pro software until 10,000 cells were counted. The geometric mean of fluorescence was determined using FlowJo analysis software, with less fluorescence corresponding to less CRFR1 on the membrane.

[1] = tested on: slices prepared from prefrontal cortex; assay: Inositol phosphate formation in prefrontal cortex slices; format: cell-based, mouse; details: CRF 500 nM pretreatment
Description: Slices were incubated for 15 min at 37° C. […] (final volume=270 μl).

## CRF: 41 amino acid peptide that activates the HPA axis; agonist of CRF receptors
ERK1/2
  ERK1/2 phosphorylation in cells transfected with HA-CRFR1 and scrambled shRNA: more robust and sustained activation
  ERK1/2 phosphorylation in non-transfected HEK 293 cells: increase in detectable ERK1/2 phosphorylation at 5 min
5-HT2AR; CRF pretreatment 500 nM for 30 min, cells expressing 5-HT2AR along with CRFR1
  increase in maximum efficacy (EMAX) for 5-HT2AR-stimulated inositol phosphate formation: 40±4.7%
5-HT2AR; HEK 293 cells expressing 5-HT2AR in the absence of CRFR1, CRF 500 nM 30 min
  effect of pretreatment on 5-HT dose-response curve for inositol phosphate formation, 5-HT2AR: had no effect
HA-CRFR1
  loss of cell surface HA-CRFR1: 24±4%
[1]; stimulated with 5-HT
  increase in 5-HT-stimulated inositol phosphate formation: 2.3±0.2 fold
[1]; stimulated with DOI 10 μM
  increase in DOI-stimulated inositol phosphate formation: 1.5±0.2 fold

From patent US20120321609A1, “METHOD OF TREATING PSYCHOLOGICAL DISORDERS” (priority 2011, published 2012)
